Experimental data published in PubChem BioAssay (NCI).
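Five compound concentrations were applied to cells in 96-well plates for 48 hours; endpoints were derived by simple linear interpolation of the resulting dose-response curve. GI50 is the concentration that inhibits growth by half. At the TGI there is no net growth.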

What was measured:
Test in all cases: inhibition of tumour cell growth, NCI panel, 48 h
[1] = tested on: M14 melanoma
[2] = tested on: A549 NSCLC
[3] = tested on: MALME-3M melanoma
[4] = tested on: SW-620 colon
[5] = tested on: A498 renal
[6] = tested on: NCI-H226 lung
[7] = tested on: BT-549 breast
[8] = tested on: HCT-116 colon
[9] = tested on: K-562 leukemia
[10] = tested on: OVCAR-4 ovarian
[11] = tested on: SF-295 CNS
[12] = tested on: KM12 colon
[13] = tested on: UO-31 renal
[14] = tested on: MDA-MB-435
[15] = tested on: T-47D breast
[16] = tested on: SK-MEL-28 melanoma
[17] = tested on: SN12C renal
[18] = tested on: NCI-H460 lung
[19] = tested on: PC-3 prostate
[20] = tested on: OVCAR-5 ovarian
[21] = tested on: HT29 colon
[22] = tested on: SNB-75 CNS
[23] = tested on: SK-MEL-5 melanoma
[24] = tested on: OVCAR-3 ovarian
[25] = tested on: DU-145 prostate
[26] = tested on: HOP-62 NSCLC
[27] = tested on: COLO 205 colon
[28] = tested on: EKVX NSCLC
[29] = tested on: HCC-2998 colon
[30] = tested on: ACHN renal
[31] = tested on: NCI-H23 lung
[32] = tested on: UACC-62 melanoma
[33] = tested on: MOLT-4 leukemia
[34] = tested on: UACC-257 melanoma
[35] = tested on: SK-OV-3 ovarian
[36] = tested on: RXF 393 renal
[37] = tested on: U251 CNS
[38] = tested on: HCT-15 colon
[39] = tested on: CAKI-1 renal
[40] = tested on: MDA-MB-231 breast
[41] = tested on: MCF7 breast
[42] = tested on: NCI/ADR-RES ovarian
[43] = tested on: HS 578T breast
[44] = tested on: NCI-H522 lung
[45] = tested on: HOP-92 NSCLC
[46] = tested on: SK-MEL-2 melanoma
[47] = tested on: RPMI-8226 leukemia
[48] = tested on: TK-10 renal
[49] = tested on: IGROV1 ovarian
[50] = tested on: CCRF-CEM leukemia
[51] = tested on: SF-268 CNS
[52] = tested on: HL-60(TB) leukemia
[53] = tested on: LOX IMVI melanoma
[54] = tested on: SNB-19 CNS
[55] = tested on: OVCAR-8 ovarian
[56] = tested on: 786-0 renal

CNC1=C(Br)C(=O)C2=C(C1=O)C1C3=C(C(=O)C=CC3=O)C2c2ccccc21 (stereo not drawn)
GI50 [1]: 1.98 µM | TGI [1]: 11.5 µM | GI50 [2]: 3.02 µM | GI50 [3]: 6.96 µM | TGI [3]: 16.2 µM | GI50 [4]: 2.79 µM | TGI [4]: > 29.1 µM | GI50 [5]: 24.9 µM | TGI [5]: 40.7 µM | GI50 [6]: 5.19 µM | TGI [6]: 14.4 µM | GI50 [7]: 2.45 µM | TGI [7]: 5.98 µM | GI50 [8]: 1.44 µM | TGI [8]: 2.86 µM | GI50 [9]: 2.65 µM | TGI [9]: > 23.7 µM | GI50 [10]: 1.76 µM | TGI [10]: 4.93 µM | GI50 [11]: 19.2 µM | TGI [11]: 45.8 µM | GI50 [12]: 14.4 µM | TGI [12]: 48.7 µM | GI50 [13]: 6.73 µM | TGI [13]: 14.4 µM | GI50 [14]: 6.59 µM | TGI [14]: 14.7 µM | GI50 [15]: 2.9 µM | TGI [15]: > 40.3 µM | GI50 [16]: 3.39 µM | TGI [16]: > 24.7 µM | GI50 [17]: 1.65 µM | TGI [17]: 3.21 µM | GI50 [18]: 18.6 µM | TGI [18]: > 85.7 µM | GI50 [19]: 1.38 µM | GI50 [20]: 6.96 µM | TGI [20]: 31.4 µM | GI50 [21]: 2.72 µM | TGI [21]: > 100 µM | GI50 [22]: 3.88 µM | TGI [22]: 24.5 µM | GI50 [23]: 5.52 µM | TGI [23]: 18.6 µM | GI50 [24]: 5.29 µM | TGI [24]: 10.9 µM | GI50 [25]: 4.06 µM | TGI [25]: 10.3 µM | GI50 [26]: 7.68 µM | TGI [26]: 23.6 µM | GI50 [27]: 4.07 µM | TGI [27]: 35.4 µM | GI50 [28]: 1.94 µM | TGI [28]: 3.7 µM | GI50 [29]: 3.74 µM | TGI [29]: 11.4 µM | GI50 [30]: 2.1 µM | TGI [30]: 3.9 µM | GI50 [31]: 5.76 µM | TGI [31]: 25.9 µM | GI50 [32]: 2.52 µM | TGI [32]: 6.85 µM | GI50 [33]: 0.473 µM | GI50 [34]: 12.7 µM | TGI [34]: > 100 µM | GI50 [35]: 10.3 µM | TGI [35]: > 55.2 µM | GI50 [36]: 2.57 µM | TGI [36]: 4.72 µM | GI50 [37]: 2.12 µM | TGI [37]: 5.01 µM | GI50 [38]: 2.19 µM | TGI [38]: 5.55 µM | GI50 [39]: 6.14 µM | TGI [39]: 13.9 µM | GI50 [40]: 2.94 µM | TGI [40]: 4.93 µM | GI50 [41]: 2.25 µM | TGI [41]: 5.62 µM | GI50 [42]: 4.68 µM | TGI [42]: 13.4 µM | GI50 [43]: 12.7 µM | TGI [43]: 70.3 µM | GI50 [44]: 6.7 µM | TGI [44]: > 22.4 µM | GI50 [45]: 1.91 µM | TGI [45]: 4.19 µM | GI50 [46]: 11 µM | TGI [46]: > 28.4 µM | TGI [47]: > 31.4 µM | GI50 [48]: 10.8 µM | TGI [48]: 34.4 µM | GI50 [49]: 4.69 µM | TGI [49]: 18 µM | GI50 [50]: 0.472 µM | TGI [50]: > 100 µM | GI50 [51]: 2.97 µM | TGI [51]: > 29.4 µM | GI50 [52]: 2.18 µM | TGI [52]: > 100 µM | GI50 [53]: 1.74 µM | TGI [53]: 4.42 µM | GI50 [54]: 14.4 µM | TGI [54]: 67.4 µM | GI50 [55]: 2.99 µM | TGI [55]: 8.93 µM | GI50 [56]: 2.12 µM | TGI [56]: 4.57 µM
